Measured values taken from US20050119231A1, “Quinolone antibacterial agents” (priority 2003, published 2005).
Values after ≈ are worked out from the molar mass of the structure shown.

Experiments:
Assay in all cases: Antibacterial microtitration assay (Test A), MIC
Assay type in all cases: cell-based
[1] = system: H. influenzae HI-3542; conditions: Haemophilus influenzae, HI3542; Gram Negative Bacteria; strain HI-3542; read-out: Minimum Inhibitory Concentrations H. influenzae HI-3542
Method: (§1) Test A—Antibacterial Assays
(§2) The compounds of the present invention were tested against an assortment of Gram-negative and Gram-positive organisms using standard microtitration techniques (Cohen et. al., Antimicrob., 1985;28:766; Heifetz, et. al., Antimicrob., 1974;6:124).

[2] = system: M. catarrhalis BC-3531; conditions: Moraxella catarrhalis, BC3531; Gram Negative Bacteria; strain BC-3531; read-out: Minimum Inhibitory Concentrations M. catarrhalis BC-3531
Method: as §1, §2

[3] = system: E. coli EC-2549; conditions: Escherichia coli, EC2549; Gram Negative Bacteria; strain EC-2549; read-out: Minimum Inhibitory Concentrations E. coli EC-2549
Method: as §1, §2

[4] = system: S pyogenes C203; conditions: Gram Positive Bacteria; strain C203; read-out: Minimum Inhibitory Concentrations S pyogenes C203
Method: as §1, §2

[5] = system: S. aureus UC-76; conditions: Staphylococcus aureus, UC76; Gram Positive Bacteria; strain UC-76; read-out: Minimum Inhibitory Concentrations S. aureus UC-76
Method: as §1, §2

[6] = system: S. pneumo SV-1; conditions: Streptococcus pneumoniae, SV1; Gram Positive Bacteria; strain SV-1; read-out: Minimum Inhibitory Concentrations S. pneumo SV-1
Method: as §1, §2

[7] = system: E. faecalis MGH-2; conditions: Enterococcus faecalis, MGH2; Gram Positive Bacteria; strain MGH-2; read-out: Minimum Inhibitory Concentrations E. faecalis MGH-2
Method: as §1, §2

Row | Compound | MIC [1] [µg/mL] | MIC [2] [µg/mL] | MIC [3] [µg/mL] | MIC [4] [µg/mL] | MIC [5] [µg/mL] | MIC [6] [µg/mL] | MIC [7] [µg/mL]
1 | Cc1c(N2CCC(CO)C2)c(F)cc2c(=O)n(N)c(=O)n(C3CC3)c12 (stereo not shown) [drawing 311] | 0.5 (≈ 1.44 µM) | 1 (≈ 2.87 µM) | 4 (≈ 11.5 µM) | – | – | – | –
2 | COc1c(N2CCC(C(O)c3ncco3)C2)c(F)cc2c(=O)n(N)c(=O)n(C3CC3)c12 (stereo not shown) [drawing 312] | 2 (≈ 4.64 µM) | 2 (≈ 4.64 µM) | 32 (≈ 74.2 µM) | – | – | – | –
3 | Cc1c(N2CCC(C(O)c3ncco3)C2)c(F)cc2c(=O)n(N)c(=O)n(C3CC3)c12 (stereo not shown) [drawing 313] | 1 (≈ 2.41 µM) | 2 (≈ 4.81 µM) | 16 (≈ 38.5 µM) | – | – | – | –
4 | COc1c(N2CCC(C(O)C(C)(F)F)C2)c(F)cc2c(=O)n(N)c(=O)n(C3CC3)c12 (stereo not shown) [drawing 314] | 4 (≈ 9.34 µM) | 8 (≈ 18.7 µM) | 64 (≈ 149 µM) | – | – | – | –
5 | COc1c(N2CCC(CCO)C2)c(F)cc2c(=O)n(N)c(=O)n(C3CC3)c12 (stereo not shown) [drawing 315] | 2 (≈ 5.29 µM) | 1 (≈ 2.64 µM) | 16 (≈ 42.3 µM) | – | – | – | –
6 | COc1c(N2CCC(C(O)C3(CO)CC3)C2)c(F)cc2c(=O)n(N)c(=O)n(C3CC3)c12 (stereo not shown) [drawing 316] | 1 (≈ 2.3 µM) | 1 (≈ 2.3 µM) | 8 (≈ 18.4 µM) | – | – | – | –
7 | Cc1c(N2CCC(C(O)CO)C2)c(F)cc2c(=O)n(N)c(=O)n(C3CC3)c12 (stereo not shown) [drawing 317] | 0.5 (≈ 1.32 µM) | 1 (≈ 2.64 µM) | 4 (≈ 10.6 µM) | – | – | – | –
8 | COc1c(N2CCC(C(O)C(F)(F)F)C2)c(F)cc2c(=O)n(N)c(=O)n(C3CC3)c12 (stereo not shown) [drawing 318] | 0.125 (≈ 0.289 µM) | 0.125 (≈ 0.289 µM) | 2 (≈ 4.63 µM) | – | – | – | –
9 | COCC1CCN(c2c(F)cc3c(=O)n(N)c(=O)n(C4CC4)c3c2OC)C1 (stereo not shown) [drawing 319] | 4 (≈ 10.6 µM) | 4 (≈ 10.6 µM) | 32 (≈ 84.6 µM) | – | – | – | –
10 | Cc1c(N2CCC(CO)C2)c(F)cc2c(=O)n(N)c(=O)n(C3CC3)c12 (stereo not shown) [drawing 320] | – | – | – | 2 (≈ 5.74 µM) | 0.5 (≈ 1.44 µM) | 1 (≈ 2.87 µM) | 2 (≈ 5.74 µM)
11 | COc1c(N2CCC(C(O)c3ncco3)C2)c(F)cc2c(=O)n(N)c(=O)n(C3CC3)c12 (stereo not shown) [drawing 321] | – | – | – | 8 (≈ 18.5 µM) | 0.5 (≈ 1.16 µM) | 8 (≈ 18.5 µM) | 8 (≈ 18.5 µM)
12 | Cc1c(N2CCC(C(O)c3ncco3)C2)c(F)cc2c(=O)n(N)c(=O)n(C3CC3)c12 (stereo not shown) [drawing 322] | – | – | – | 4 (≈ 9.63 µM) | 1 (≈ 2.41 µM) | 4 (≈ 9.63 µM) | 8 (≈ 19.3 µM)
13 | COc1c(N2CCC(C(O)C(C)(F)F)C2)c(F)cc2c(=O)n(N)c(=O)n(C3CC3)c12 (stereo not shown) [drawing 323] | – | – | – | 8 (≈ 18.7 µM) | 2 (≈ 4.67 µM) | 8 (≈ 18.7 µM) | 16 (≈ 37.3 µM)
14 | COc1c(N2CCC(CCO)C2)c(F)cc2c(=O)n(N)c(=O)n(C3CC3)c12 (stereo not shown) [drawing 324] | – | – | – | 4 (≈ 10.6 µM) | 0.5 (≈ 1.32 µM) | 2 (≈ 5.29 µM) | 4 (≈ 10.6 µM)
15 | COc1c(N2CCC(C(O)C3(CO)CC3)C2)c(F)cc2c(=O)n(N)c(=O)n(C3CC3)c12 (stereo not shown) [drawing 325] | – | – | – | 8 (≈ 18.4 µM) | 0.5 (≈ 1.15 µM) | 4 (≈ 9.21 µM) | 4 (≈ 9.21 µM)
16 | Cc1c(N2CCC(C(O)CO)C2)c(F)cc2c(=O)n(N)c(=O)n(C3CC3)c12 (stereo not shown) [drawing 326] | – | – | – | 1 (≈ 2.64 µM) | 0.25 (≈ 0.661 µM) | 1 (≈ 2.64 µM) | 2 (≈ 5.29 µM)

Row | Compound | MIC [1] [µg/mL] | MIC [2] [µg/mL] | MIC [3] [µg/mL] | MIC [4] [µg/mL] | MIC [5] [µg/mL] | MIC [6] [µg/mL] | MIC [7] [µg/mL]
17 | COc1c(N2CCC(C(O)C(F)(F)F)C2)c(F)cc2c(=O)n(N)c(=O)n(C3CC3)c12 (stereo not shown) [drawing 327] | – | – | – | 1 (≈ 2.31 µM) | 0.06 (≈ 0.139 µM) | 0.5 (≈ 1.16 µM) | 1 (≈ 2.31 µM)
18 | COCC1CCN(c2c(F)cc3c(=O)n(N)c(=O)n(C4CC4)c3c2OC)C1 (stereo not shown) [drawing 328] | – | – | – | 4 (≈ 10.6 µM) | 1 (≈ 2.64 µM) | 2 (≈ 5.29 µM) | 4 (≈ 10.6 µM)
19 | Nn1c(=O)c2cc(F)c(N3C[C@@H](CO)[C@@H](CO)C3)nc2n(C2CC2)c1=O [drawing 330] | 0.5 (≈ 1.37 µM) | 1 (≈ 2.74 µM) | 16 (≈ 43.8 µM) | – | – | – | –
20 | Nn1c(=O)c2cc(F)c(N3C[C@H](CO)[C@@H](CO)C3)nc2n(C2CC2)c1=O [drawing 331] | 1 (≈ 2.74 µM) | 4 (≈ 10.9 µM) | 32 (≈ 87.6 µM) | – | – | – | –
21 | Nn1c(=O)c2cc(F)c(N3C[C@@H](O)[C@@H](O)C3)nc2n(C2CC2)c1=O [drawing 332] | 0.5 (≈ 1.48 µM) | 2 (≈ 5.93 µM) | 16 (≈ 47.4 µM) | – | – | – | –
22 | Nn1c(=O)c2cc(F)c(N3C[C@@H](CCO)[C@@H](CCO)C3)nc2n(C2CC2)c1=O [drawing 333] | 0.015 (≈ 0.0381 µM) | 0.06 (≈ 0.153 µM) | 0.125 (≈ 0.318 µM) | – | – | – | –
23 | Nn1c(=O)c2cc(F)c(N3C[C@H](CO)[C@H](F)C3)nc2n(C2CC2)c1=O [drawing 334] | 0.5 (≈ 1.42 µM) | 1 (≈ 2.83 µM) | 4 (≈ 11.3 µM) | – | – | – | –
24 | Nn1c(=O)c2cc(F)c(N3C[C@@H](CO)[C@@H](CO)C3)nc2n(C2CC2)c1=O [drawing 335] | – | – | – | 1 (≈ 2.74 µM) | 0.25 (≈ 0.684 µM) | 2 (≈ 5.47 µM) | 4 (≈ 10.9 µM)
25 | Nn1c(=O)c2cc(F)c(N3C[C@H](CO)[C@@H](CO)C3)nc2n(C2CC2)c1=O [drawing 336] | – | – | – | 2 (≈ 5.47 µM) | 0.5 (≈ 1.37 µM) | 4 (≈ 10.9 µM) | 8 (≈ 21.9 µM)
26 | Nn1c(=O)c2cc(F)c(N3C[C@@H](O)[C@@H](O)C3)nc2n(C2CC2)c1=O [drawing 337] | – | – | – | 8 (≈ 23.7 µM) | 2 (≈ 5.93 µM) | 8 (≈ 23.7 µM) | 8 (≈ 23.7 µM)
27 | Nn1c(=O)c2cc(F)c(N3C[C@@H](CCO)[C@@H](CCO)C3)nc2n(C2CC2)c1=O [drawing 338] | – | – | – | 0.03 (≈ 0.0763 µM) | 0.002 (≈ 0.00508 µM) | 0.03 (≈ 0.0763 µM) | 0.06 (≈ 0.153 µM)
28 | Nn1c(=O)c2cc(F)c(N3C[C@H](CO)[C@H](F)C3)nc2n(C2CC2)c1=O [drawing 339] | – | – | – | 4 (≈ 11.3 µM) | 0.25 (≈ 0.708 µM) | 2 (≈ 5.66 µM) | 4 (≈ 11.3 µM)
29 | Cc1c(N2C[C@](C)(CO)[C@](C)(CO)C2)c(F)cc2c(=O)n(N)c(=O)n(C3CC3)c12 [drawing 341] | 16 (≈ 39.4 µM) | 32 (≈ 78.7 µM) | 64 (≈ 157 µM) | – | – | – | –
30 | Cc1c(N2C[C@](C)(CO)[C@](C)(CO)C2)c(F)cc2c(=O)n(N)c(=O)n(C3CC3)c12 [drawing 342] | – | – | – | 32 (≈ 78.7 µM) | 2 (≈ 4.92 µM) | 16 (≈ 39.4 µM) | 16 (≈ 39.4 µM)
31 | Cc1c(N2CC3CCC(O)(CO)C3C2)c(F)cc2c(=O)n(N)c(=O)n(C3CC3)c12 (stereo not shown) [drawing 344] | 4 (≈ 9.89 µM) | 4 (≈ 9.89 µM) | 32 (≈ 79.1 µM) | – | – | – | –
32 | Cc1c(N2CC3CCC(O)(CO)C3C2)c(F)cc2c(=O)n(N)c(=O)n(C3CC3)c12 (stereo not shown) [drawing 345] | – | – | – | 8 (≈ 19.8 µM) | 1 (≈ 2.47 µM) | 8 (≈ 19.8 µM) | 8 (≈ 19.8 µM)
